Data on one compound can be found in US20130071853A1, “METHODS FOR IDENTIFYING COMPOSITIONS THAT ALTER WILDTYPE EXPRESSION OF GENES AND PROTEINS IN A PLANT CELL” (Dow Agrosciences LLC, priority 2010, published 2013).

Assay [1] concerns maize transcripts (corn genes on the microarray). Nature of the assay: Agilent single-color global gene expression profiling of corn leaf tissue 2 h after spray treatment. Type of assay: in vivo, Zea maize (corn). The settings on record: for Regulation: Table 1: corn genes, 1-MCP alone, direction of change per probe/gene. As for the experimental part:
Hybrid corn seed (one plant per pot) was planted in 1 quart pots filled with FAFARD 3B™ potting mix (Conrad Fafard, Inc., Agawam, Mass.). Corn was grown in a greenhouse with a 12 hr light cycle and watered every 24 hours or as needed to maintain stress free conditions. When the corn plants reached the V10 growth stage, the pots were arranged into a randomized complete block design with 4 plants with 3 replications per treatment. Corn plants were treated using a standard CO2 sprayer with 20 gal/acre carrier volume.
Treatments were: • Control: Oil/Adjuvant check using 0.035% v/v the organosilicone surfactant SILWET L-77 (Helena Chemical Co., Collierville, Tenn.) • Compound 1: A17492F (MCP) 25 g active ingredient/hectare (ai/ha)+0.035% SILWET surfactant • Compound 2: COMPASS fungicide 1x+0.035% SILWET surfactant • Combination (1 and 2): 1 MCP 25 g/ha+COMPASS fungicide 1x
Two hours after the spray application, upper leaves that had received the spray were sampled. For each plant, five, 2 inch pieces of leaves were taken, cut into small pieces and combined into a 50 ml polypropylene tube. Samples were immediately frozen on dry ice and sent on dry ice overnight to the laboratory for processing.
A single-color Agilent global gene expression profiling design was used to define differentially expressed genes for treated in reference to untreated maize leaf tissues. Three technical array replicates (Agilent Technologies Inc., Santa Clara, Calif.) were hybridized to compare different transcript abundance between leaf tissues treated with the COMPASS fungicide and/or 1-MCP in reference to untreated leaf tissues.
A Dow AgroSciences custom generated 60-mer comprehensive transcriptome-wide Zea maize oligonucleotide array was used to carry out microarray hybridizations. This array represents more than 58,000 different maize transcripts (Agilent Technologies Inc., Santa Clara, Calif.) obtained from public data sources. Microarray chips were printed using an Agilent format 2×105K, including 10 copies of 100 probes, 2 copies of 44,196 probes 1 copy of 14,355 probes in addition to 1,325 Agilent spike-in controls. The 60-mer unique and specific oligonucleotides were synthesized in-situ using the Sure-Print technology from the manufacturer.
Samples of 30-50 mg of frozen leaf tissues were resuspended in 450 μL of extraction buffer RLT from the RNeasy™ Kit for RNA extraction (Qiagen, Valencia, Calif.). Tissues were then ground to a fine powder by adding one 3 mm grinding bead to each frozen sample and grinding for 3 minutes using a GenoGrinder instrument at a rate of 300, 1×. Total RNA was purified following the manufacturer's instructions. Purified total RNA was then quantified and quality controlled using a NanoDrop™ spectrophotometer and visualized by standard 1% Agarose gel electrophoresis.
For labeling, a total of 1.0 μg of purified RNA from treated and untreated tissues was reverse transcribed, amplified and labeled with Cy3-CTP following the Agilent (Santa Clara, Calif.) one-color microarray-based gene expression QuickAmp™ labeling protocol. Since Dow AgroSciences-generated Zea maize AGILENT™ microarrays for gene expression (P/N G4503A, Design ID 022232) contain internal spike-in controls a one-color RNA spike-in kit (Agilent, Santa Clara, Calif.) was also labeled according to manufacturer's instructions. Samples were reverse transcribed using MMLV Reverse Transcriptase and amplified using a T7 RNA Polymerase. After amplification cRNA was purified using Qiagen's RNeasy mini spin columns and quantified using a NanoDrop spectrophotometer. Specific activity for Cy3 was determined by the following formula: […]
Oligo gene expression arrays were hybridized using the Agilent Technologies (Santa Clara, Calif.) Gene Expression Hybridization kit, Wash Buffer kit, Stabilization and Drying Solution following the manufacturer's instructions. Hybridizations were carried out on a fully automated TECAN HS4800 PRO™ (TECAN U.S., Research Triangle Park, N.C.). […]

The subject of assay [2] is Arabidopsis genes on the microarray. In words: Agilent single-color global gene expression profiling of Arabidopsis leaf tissue 2 h after spray treatment. The settings on record: for Regulation^a: direction per probe/gene. It is filed as in vivo, Arabidopsis thaliana (variety Columbia). As for the experimental part: Thirteen Arabidopsis seeds (variety Columbia) were planted in 6 inch pots filled with sandy clay medium. After emergence, pots were thinned to 10 plants per pot. Plants were grown in a greenhouse with a 12 hr light cycle and watered every 24 hours or as needed to maintain stress free conditions. When the Arabidopsis plants reached the vegetative (>BBCH 11<BBCH 30) stage (approx. 2-3 wks from planting), the pots were arranged into a randomized complete block design with 10 plants with 3 replications per treatment. The plants were treated using a standard CO2 sprayer with 20 gal/A carrier volume.
Control: Oil/Adjuvant check (0.035% v/v SILWET adjuvant L-77)
Compound 1: A17492F (MCP) 25 g ai /ha+0.035% SILWET adjuvant
Compound 2: COMPASS fungicide 1x+0.035% SILWET adjuvant
Combination: 1 MCP 25 g/ha+COMPASS fungicide 1x
Two hours after the spray application, leaves that had received the spray were sampled. For each treatment, two leaves were taken from each of the 10 plants and combined into a 50 ml polypropylene tube. Samples were immediately frozen on dry ice and sent on dry ice overnight to the laboratory for processing.
A single-color Agilent global gene expression profiling design was used to define differentially expressed genes for treated in reference to untreated Arabidopsis leaf tissues. Three technical array replicates (Agilent Technologies Inc., Santa Clara, Calif.) were hybridized to compare different transcript abundance between leaf tissues treated with Strobilurin and/or 1-MCP in reference to untreated leaf tissues. Arabidopsis slides, Product #G2519F, Design ID 021169 were obtained from Agilent Technologies.
Samples of 30-50 mg of frozen leaf tissues were resuspended in 450 μL of extraction buffer RLT from the RNeasy Kit for RNA extraction (Qiagen, Valencia, Calif.). Tissues were then ground to a fine powder by adding one 3 mm grinding bead to each frozen sample and grinding for 3 minutes using a GenoGrinder at a rate of 300, 1×. Total RNA was purified following the manufacturer's instructions. Purified total RNA was then quantified and quality controlled using a NanoDrop spectrophotometer and visualized by standard 1% Agarose gel electrophoresis.
For labeling, a total of 1.0 μg of purified RNA from treated and untreated tissues was reverse transcribed, amplified and labeled with Cy3-CTP following the Agilent (Santa Clara, Calif.) one-color microarray-based gene expression QuickAmp labeling protocol. Since Agilent Arabidopsis microarrays for gene expression (Product #G2519F, Design ID 021169) contain internal spike-in controls a one-color RNA spike-in kit (Agilent, Santa Clara, Calif.) was also labeled according to manufacturer's instructions. Samples were reverse transcribed using MMLV Reverse Transcriptase and amplified using a T7 RNA Polymerase. After amplification cRNA was purified using Qiagen's RNeasy mini spin columns and quantified using a NanoDrop spectrophotometer. Specific activity for Cy3 was determined by the following formula: (Concentration of Cy3)/(Concentration of cRNA)*1000=pmol of Cy3 per μg of cRNA. Samples for hybridization were normalized to 825 ng with a specific activity of >8.0 pmol of Cy3 per μg of cRNA.
Oligo gene expression arrays were hybridized using the Agilent Technologies (Santa Clara, Calif.) Gene Expression Hybridization kit, Wash Buffer kit, Stabilization and Drying Solution following the manufacturer's instructions. Hybridizations were carried out on a fully automated TECAN HS4800 PRO (TECAN U.S., Research Triangle Park, N.C.) hybridization instrument. The hybridization mixture was injected at 65° C. and incubated with agitation for 17 hrs after following a slide pre-hybridization step at 65° C. for 30 seconds. Slides were then washed at 37° C. for 1 minute using the Agilent GE Wash #1 followed by a second wash at 30° C. with Agilent GE Wash #2 for 1 minute and a final drying step using Nitrogen gas for 2 minutes and 30 seconds at 30° C. […]

The mark [3] stands for this setting: corn leaves, 2 h after spray, ≧2 fold change.
The mark [4] stands for this setting: Arabidopsis leaves, 2 h after spray, ≧5 fold change.

As to `CC1=CC1` [Compound 1-MCP, 1-methylcyclopropene], the Regulation entry in assay [1] (probe ZmOL3000012) is given as “up”; in assay [1] (probe ZmOL3007441), “down”; in assay [1] (probe ZmOL3020067) it was “Down”; in assay [1] (probe ZmOL3050321_2) it was “Up”. Moreover, the “expression of carbonic anhydrase” value in assay [1] (corn) is given as “decreased”. The “overall effect of treatment on gene expression” value in assay [1] (corn) and in assay [2] (Arabidopsis) was “reduction in stress-related gene expression” throughout. In addition, the “genes differentially expressed on the microarray vs untreated” value in assay [1] (setting [3]) turned out to be 934 genes; in assay [2] (setting [4]), 411 genes. Also, the “subset of genes changed uniquely in response to this treatment” value in assay [1] (setting [3]) is 362 genes; in assay [2] (setting [4]), 202 genes. Also, the “genes involved in translation whose expression changed that were induced” value in assay [1] (corn, genes unique to the treatment) was 9 out of 10. The “common genes following treatment with either 1-MCP or COMPASS alone” value in assay [2] (Arabidopsis, ≧5 fold change) is 165 genes. The “Regulation^a” value in assay [2] (Table 3: Arabidopsis genes, 1-MCP alone, probe A_84_P20410) is “up”; in assay [2] (Table 3: Arabidopsis genes, 1-MCP alone, probe A_84_P786760), “down”; in assay [2] (Table 5: common genes, first column pair (a), probe A_84_P13916) it was “down”; in assay [2] (Table 5: common genes, first column pair (a), probe A_84_P507728), “up”.
